Laboratory results reported in patent US20240300927A1, “AMIDES AS CBL-B INHIBITORS” (Genentech, Inc., priority 2021, published 2024).
pEC50, pIC50: −log10 of the molar value. Like-named read-outs stand apart in the source and are kept apart here.

Tests used:
[1] = Liver microsomes metabolic stability, mouse; format: in vitro ADME
Description: (§1) Metabolic stability of test compounds was evaluated in pooled rat, mouse, dog, and cynomolgus monkey liver microsomes (BD Biosciences, San Jose, CA). The incubation conditions were as follows: 1 μM of the tested compound, 1 mM NADPH, 0.5 mg/mL microsomal protein in 0.1 M potassium phosphate buffer (pH 7.4). Following a 5-minute pre-incubation period, the enzymatic reactions were initiated by the addition of NADPH and test compound to the microsomes diluted in phosphate buffered saline. The mixtures were incubated at 37° C. for 0, 20, 40, and 60 min.
(§2) Compound concentrations were assessed by LC-MS/MS. Intrinsic clearance based upon microsomal stability data was determined using a substrate depletion method and scaled to hepatic clearance using the well-stirred model (Obach, R. S.; Baxter, J. G.; Liston, T. E.; Silber, B. M.; Jones, B. C.; MacIntyre, F.; Rance, D. J.; Wastall, P., “The Prediction of Human Pharmacokinetic Parameters from Preclinical and in vitro Metabolism Data”, J. Pharmacol. Exp. Ther., (1997), 283 (1), 46-58).

[2] = tested on: PBMCs; assay: PBMC IL-2 assay; format: cell-based; settings: read-out: PBMC IL-2 Cell EC50
Description: Immune response to compounds described herein can be assessed via a PBMC IL-2 assay, conducted according to the following protocol. PBMCs (#A19K379053, A19K261022; TPCS) are thawed into complete medium: 1640 medium (#2085568; Gibco), 10% FBS (#SH30084.03; HyClone), and 1× pen/strep. Compounds are 3-fold serially diluted in DMSO in a 384-well polypropylene plate (#P-05525-BC; Labcyte) using the Tecan EVO to generate a source plate with 10 concentrations of each compound, top concentration=4 mM. Compounds are dispensed into a 96-well plate (#6005680; PerkinElmer) using a Labcyte Echo; final dispensed volume of each control and compound is 1000 nL (final DMSO=0.5%). After recovery overnight, cells are seeded at 2×10^5 cells/well into 96-well plates containing compounds and incubated at 37° C., 5% CO2 for 30 min. Cells are stimulated by adding 20 μL/well 1/10 TransAct (#130-111-160; Miltenyi) diluted in complete medium, placed on a shaker for 2 min at 600 rpm, and incubated for 24 h at 37° C., 5% CO2. Plates are centrifuged at 1200 rpm for 5 min and 120 μL cell supernatant collected. Supernatants are diluted 10-fold and IL-2 concentrations of each sample are determined using the IL-2 MSD kit (#K151AHB-4; MSD) per the manufacturer's instructions.

[3] = Liver microsomes metabolic stability, cynomolgus monkey; format: in vitro ADME
Description: as §1, §2

[4] = tested on: hWB; assay: IL-2 hWB assay; format: cell-based; settings: Homo sapiens
[5] = Liver microsomes metabolic stability, human; format: in vitro ADME
[6] = LogD; format: physicochemical
[7] = biological target: Cbl-b (Homo sapiens (Human), UniProt Q13191); assay: Cbl-b LCK Ub TR-FRET assay (Cbl-b Lck HTRF); format: biochemical
How it was run: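 Biotin-Cbl-b (16 nM) or biotin-c-Cbl (12 nM) at 2× preincubated with compound 60 min, then His-LCK (120 nM), 1 mM ATP and MgCl2 (2× mix) added for 90 min at RT. Buffer: HEPES pH 7.0, DTT. UBE2D2–HA-ubiquitin transfer read by TR-FRET (665/615 nm); IC50 versus no-LCK and DMSO controls, 10-point dilutions.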

[8] = Liver microsomes metabolic stability, dog; format: in vitro ADME
Description: as §1, §2

Chain of Cbl-b (Q13191 40-426): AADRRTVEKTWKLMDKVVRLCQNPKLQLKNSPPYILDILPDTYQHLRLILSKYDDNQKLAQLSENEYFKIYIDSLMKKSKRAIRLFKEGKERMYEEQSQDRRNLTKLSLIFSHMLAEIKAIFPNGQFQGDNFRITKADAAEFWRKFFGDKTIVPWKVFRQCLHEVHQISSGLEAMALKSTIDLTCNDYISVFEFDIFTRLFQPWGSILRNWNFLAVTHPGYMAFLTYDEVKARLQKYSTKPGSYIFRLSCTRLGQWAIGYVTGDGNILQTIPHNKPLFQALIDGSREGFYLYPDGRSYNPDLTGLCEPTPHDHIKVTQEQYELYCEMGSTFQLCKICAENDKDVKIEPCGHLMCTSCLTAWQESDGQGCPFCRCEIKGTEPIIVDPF

SMILES: CC(C)[C@H]1CN(C)CCN1Cc1cc(C(=O)Nc2cccc(C3(Cc4nncn4C)CC(F)(F)C3)c2)nc(C2CC2)c1 [Compound 224, (S)-6-cyclopropyl-N-(3-(3,3-difluoro-1-((4-methyl-4H-1,2,4-triazol-3-yl)methyl)cyclobutyl)phenyl)-4-((2-isopropyl-4-methylpiperazin-1-yl)methyl)picolinamide]
- LM (H/R/M/D/C) [1]: 60
- pEC50 [2]: 7.49
- LM (H/R/M/D/C) [3]: 40
- pEC50 [4]: 6.60
- LM (H/R/M/D/C) [5]: 18
- logD [6]: 2.2
- (fold-selectivity) ([7]; Cbl-b and C-Cbl selectivity, Lck HTRF): (0.66x)
- pIC50 ([7]; Table 4 comparative data, read-out: Lck IC50): 8.12
- pIC50 ([7]; read-out: Cbl-b Lck HTRF IC50): 8.12
- Lck IC50 (select.) ([7]; selectivity, Table 4): 0.68 x
- LM (H/R/M/D/C) [8]: 29
